Columns and labels:
morningglory = assay: Test A preemergence; assay type: in vivo, Ipomoea spp.; conditions: for Morningglory plant response rating: 0 to 100 scale, 0 no effect, 100 complete control, approx. 10 days
Summary of the method: (§1)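 Scoring: eye-based comparison with untreated controls, 0 for no effect through 100 for complete control, at about day 10. Treatments: directed soil spray preemergence; foliar spray postemergence on 2–10 cm plants at the one- to two-leaf stage. Medium: loam soil with sand.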

wheat = assay: Test A preemergence; assay type: in vivo, Triticum aestivum; conditions: for Wheat plant response rating: 0 to 100 scale, 0 no effect, 100 complete control, approx. 10 days
Summary of the method: as §1

velvetleaf [1] = assay: Test A postemergence; assay type: in vivo, Abutilon theophrasti
Summary of the method: as §1

sedge, umbrella = assay: Test B flooded paddy test; assay type: in vivo, Cyperus difformis; conditions: Flood, 250 g ai/ha; 0 to 100 scale where 0 is no effect and 100 is complete control
Summary of the method: (§2)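 Evaluation is visual, against untreated controls, 13 to 15 days after treatment. Before treatment, plants reached the 2-leaf stage; pots were then flooded 3 cm deep, compound was added to the water, and that level was maintained. Ratings run 0 to 100, with 100 meaning complete control.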

barnyardgrass [2] = assay: Test B flooded paddy test; assay type: in vivo, Echinochloa crus-galli; conditions: Flood, 250 g ai/ha; 0 to 100 scale where 0 is no effect and 100 is complete control
Summary of the method: as §2

large (Lg) crabgrass = assay: Test C postemergence; assay type: in vivo, Digitaria sanguinalis; conditions: for Plant response rating, Crabgrass, Large: Postemergence
Summary of the method: (§3)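 Plants were kept under greenhouse conditions for 13–15 days following spray. Pre-emergent application went to soil (loam–sand), post-emergent to foliage at 1–4 leaves. Evaluation: visual, percent control against untreated checks.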

soybean = assay: Test C postemergence; assay type: in vivo, Glycine max; conditions: for Plant response rating (0 to 100), Soybean: postemergence; for Plant response rating, Soybean: Postemergence, scale 0 to 100 (0 no effect, 100 complete control)
Summary of the method: as §3

barnyardgrass [3] = assay: Test C postemergence; assay type: in vivo, Echinochloa crus-galli; conditions: for Plant response rating, Barnyardgrass: Postemergence
From the text: (§4) Seeds of plant species selected from blackgrass (Alopecurus myosuroides), Italian ryegrass (Lolium multiflorum), wheat, winter (winter wheat, Triticum aestivum), galium (catchweed bedstraw, Galium aparine), corn (Zea mays), large (Lg) crabgrass (Digitaria sanguinalis), giant foxtail (Setaria faberii), johnsongrass (Sorghum halepense), lambsquarters (Chenopodium album), morningglory (Ipomoea coccinea), yellow nutsedge (Cyperus esculentus), pigweed (Amaranthus retroflexus), ragweed (common ragweed, Ambrosia elatior), soybean (Glycine max), barnyardgrass (Echinochloa crus-galli), oilseed rape (Brassica napus), waterhemp (common waterhemp, Amaranthus rudis), kochia (Kochia scoparia), wild oat (Avena fatua), surinam grass (Brachiaria decumbens), foxtail, green (green foxtail, Setaria viridis), goosegrass (Eleusine indica), bromegrass, downy (downy bromegrass, Bromus tectorum), nightshade (eastern black nightshade, Solanum ptycanthum), cocklebur (common cocklebur, Xanthium strumarium), cupgrass, woolly (woolly cupgrass, Eriochloa villosa), bermudagrass (Cynodon dactylon), sunflower, (common oilseed sunflower, Helianthus annuus), Russian thistle (Salsola kali), and velvetleaf (Abutilon theophrasti) were planted into a blend of loam soil and sand and treated preemergence with test chemicals formulated in a non-phytotoxic solvent mixture which included a surfactant.
(§5) At the same time, plants selected from these crop and weed species and also barley, winter (winter barley, Hordeum vulgare), windgrass (Apera spica-venti), chickweed (common chickweed, Stellaria media), deadnettle (henbit deadnettle, Lamium amplexicaule), and canarygrass (littleseed canarygrass, Phalaris minor) were planted in pots containing Redi-Earth® planting medium (Scotts Company, 14111 Scottslawn Road, Marysville, Ohio 43041) comprising spaghnum peat moss, vermiculite, wetting agent and starter nutrients and treated with postemergence applications of test chemicals formulated in the same manner. Plants ranged in height from 2 to 18 cm (1- to 4-leaf stage) for postemergence treatments. Treated plants and controls were maintained in a greenhouse for 13 to 15 days, after which time all species were compared to controls and visually evaluated. Plant response ratings, summarized in Table C, are based on a scale of 0 to 100 where 0 is no effect and 100 is complete control. A dash (-) response means no test result.

oilseed rape = assay: Test C postemergence; assay type: in vivo, Brassica napus; conditions: for Plant response rating (0 to 100), Oilseed Rape: postemergence; for Plant response rating, Oilseed Rape: Postemergence, scale 0 to 100 (0 no effect, 100 complete control)
Summary of the method: as §3

waterhemp = assay: Test C postemergence; assay type: in vivo, Amaranthus rudis; conditions: for Plant response rating (0 to 100), Waterhemp: postemergence; for Plant response rating, Waterhemp: Postemergence, scale 0 to 100 (0 no effect, 100 complete control)
From the text: as §4, §5

velvetleaf [4] = assay: Test C postemergence; assay type: in vivo, Abutilon theophrasti; conditions: for Plant response rating (0 to 100), Velvetleaf: postemergence; for Plant response rating, Velvetleaf: Postemergence, scale 0 to 100 (0 no effect, 100 complete control)
Summary of the method: as §3

[5] = 1000 g ai/ha, 0 to 100 scale, 0 no effect, 100 complete control
[6] = 16 g ai/ha, postemergence, visual rating, scale 0 to 100 (0 no effect, 100 complete control), 13 to 15 days
[7] = 31 g ai/ha, scale 0 to 100 (0 no effect, 100 complete control), 13 to 15 days
[8] = 62 g ai/ha, scale 0 to 100 (0 no effect, 100 complete control)
[9] = 125 g ai/ha, 0 to 100 scale where 0 is no effect and 100 is complete control
[10] = 8 g ai/ha, postemergence, 0 is no effect, 100 is complete control
[11] = 16 g ai/ha, postemergence, 0 is no effect, 100 is complete control
[12] = 8 g ai/ha, 0 is no effect, 100 is complete control
[13] = 16 g ai/ha, 0 is no effect, 100 is complete control

Compound	Morningglory plant response rating (morningglory; 1000 g ai/ha)	Wheat plant response rating (wheat; 1000 g ai/ha)	Plant response rating, Velvetleaf (velvetleaf [1]; [5])	Plant response rating, Sedge, Umbrella (sedge, umbrella)	Plant response rating, Barnyardgrass (barnyardgrass [2])	Plant response rating (0 to 100), Crabgrass, Large (large (Lg) crabgrass; 125 g ai/ha, postemergence)	Plant response rating, Crabgrass, Large (large (Lg) crabgrass; [7])	Plant response rating, Crabgrass, Large (large (Lg) crabgrass; [8])	Plant response rating (0 to 100), Soybean (soybean; 125 g ai/ha)	Plant response rating, Soybean (soybean; 31 g ai/ha, 13 to 15 days)	Plant response rating, Soybean (soybean; 62 g ai/ha)	Plant response rating (0 to 100), Barnyardgrass (barnyardgrass [3]; 125 g ai/ha, postemergence)	Plant response rating, Barnyardgrass (barnyardgrass [3]; [7])	Plant response rating, Barnyardgrass (barnyardgrass [3]; [8])	Plant response rating (0 to 100), Oilseed Rape (oilseed rape; 125 g ai/ha)	Plant response rating, Oilseed Rape (oilseed rape; 31 g ai/ha, 13 to 15 days)	Plant response rating, Oilseed Rape (oilseed rape; 62 g ai/ha)	Plant response rating (0 to 100), Waterhemp (waterhemp; 125 g ai/ha)	Plant response rating, Waterhemp (waterhemp; 31 g ai/ha, 13 to 15 days)	Plant response rating, Waterhemp (waterhemp; 62 g ai/ha)	also measured
Clc1cnc(Oc2cccc(Br)c2-n2cc(Br)cn2)nc1 [Compound 65]	100	30	100	95	0	5	5	5	85	40	60	10	5	5	90	25	60	90	75	95	Crabgrass, Large plant response rating (large (Lg) crabgrass; [6]): 5; Barnyardgrass plant response rating (barnyardgrass [3]; [6]): 5; Plant response rating (0 to 100), Velvetleaf (velvetleaf [4]; 125 g ai/ha): 65; Plant response rating, Velvetleaf (velvetleaf [4]; 31 g ai/ha, 13 to 15 days): 50; Plant response rating, Velvetleaf (velvetleaf [4]; 62 g ai/ha): 55
N#Cc1cccc(Oc2ncc(Cl)cn2)c1-n1cnc(Br)c1 [Compound 74]				70	0	15	5	5	75	40	65	5	0	5	40	35	40	60	35	60	Plant response rating, Morningglory (morningglory; [9]): 70; Morningglory plant response rating (morningglory; 500 g ai/ha): 100; Plant response rating, Wheat (wheat; [9]): 0; Wheat plant response rating (wheat; 500 g ai/ha): 40; Plant response rating, Velvetleaf (velvetleaf [1]; [9]): 90; Plant response rating, Velvetleaf (velvetleaf [1]; 500 g ai/ha, 0 to 100 scale where 0 is no effect and 100 is complete control): 100; Plant response rating (0 to 100), Crabgrass, Large (large (Lg) crabgrass; 250 g ai/ha, postemergence): 20; Plant response rating (0 to 100), Soybean (soybean; 250 g ai/ha): 80; Plant response rating (0 to 100), Barnyardgrass (barnyardgrass [3]; 250 g ai/ha, postemergence): 15; Plant response rating (0 to 100), Oilseed Rape (oilseed rape; 250 g ai/ha): 65; Plant response rating (0 to 100), Waterhemp (waterhemp; 250 g ai/ha): 80; Plant response rating (0 to 100), Velvetleaf (velvetleaf [4]; 125 g ai/ha): 50; Plant response rating (0 to 100), Velvetleaf (velvetleaf [4]; 250 g ai/ha): 65; Plant response rating, Velvetleaf (velvetleaf [4]; 31 g ai/ha, 13 to 15 days): 30; Plant response rating, Velvetleaf (velvetleaf [4]; 62 g ai/ha): 35
CC(=NO)c1cn(-c2c(Br)cccc2Oc2ncc(Cl)cn2)nn1 [Compound 115]	50	40	100	20	0								5								Plant response rating (0 to 100), Crabgrass, Large (large (Lg) crabgrass; [10]): 5; Plant response rating (0 to 100), Crabgrass, Large (large (Lg) crabgrass; [11]): 5; Plant response rating (0 to 100), Soybean (soybean; [12]): 5; Plant response rating (0 to 100), Soybean (soybean; [13]): 10; Plant response rating (0 to 100), Barnyardgrass (barnyardgrass [3]; 4 g ai/ha, postemergence, 0 is no effect, 100 is complete control): 0; Plant response rating (0 to 100), Barnyardgrass (barnyardgrass [3]; [10]): 0; Plant response rating (0 to 100), Barnyardgrass (barnyardgrass [3]; [11]): 0; Plant response rating (0 to 100), Oilseed Rape (oilseed rape; [12]): 0; Plant response rating (0 to 100), Oilseed Rape (oilseed rape; [13]): 0; Plant response rating (0 to 100), Waterhemp (waterhemp; [12]): 5; Plant response rating (0 to 100), Waterhemp (waterhemp; [13]): 30; Plant response rating (0 to 100), Velvetleaf (velvetleaf [4]; [12]): 5; Plant response rating (0 to 100), Velvetleaf (velvetleaf [4]; [13]): 5
